Assay [1] deals with eight different strains of five species of Gram-negative bacteria. As to the kind of experiment: MBEC in eight strains of five species of Gram-negative bacteria. The conditions noted are these: 24 h biofilm in LB, 16 h treatment. Type of assay: cell-based. As to the method:
Determination of Minimal Biofilm Eradicating Concentrations (MBEC). […] The OD600 of extracted crystal violet was determined. The MBEC value of each sample was determined as the minimum drug concentration required to remove >95% of biofilm biomass as assessed by crystal violet quantitation (in comparison to untreated controls).
MBEC values were likewise determined for Chp2, Chp2-M1, and Chp10-M1 in eight different strains of five species of Gram-negative bacteria. […] The films were then washed and stained with crystal violet to visualize the MBEC.

Assay [2] concerns Klebsiella pneumoniae strain 1139. Kind of assay: Checkerboard assay (FICI) with antibiotics, K. pneumoniae. It is filed as cell-based. An outline of the steps:
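Antibiotics in 2-fold dilutions across one axis against Chp peptide dilutions on the other. FICI = MIC in combination/MIC alone for antibiotic plus the same ratio for peptide; minimum FICI used. Synergy at FICI ≤0.5, strongly additive >0.5 to <1, additive 1-<2, antagonistic ≥2.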

The subject of assay [3] is P. aeruginosa strain CFS 1292. Type of assay: cell-based, Pseudomonas aeruginosa. The conditions noted are these: serial passage.
Assay [4] concerns P. aeruginosa strain CFS-1292. Kind of assay: Time-kill assay in CAA with 2.5% human serum. It is filed as cell-based, Pseudomonas aeruginosa. The conditions noted are these: for Loss of bacterial viability: CAA with […] human serum, vs untreated controls. As to the method: Time-Kill Assay of Chp Peptide Activity. […] Exponential phase bacteria were then diluted 1:100 into CAA/HuS and peptide was added at a final concentration of either 1 or 10 μg/mL. Control cultures were included with no peptide added (i.e., buffer control).

The mark [5] stands for this setting: checkerboard, in combination with Chp4-M1.
Setting [6] is: checkerboard, in combination with Chp6-M1.
The mark [7] stands for this setting: checkerboard, in combination with Chp10-M1.
[8] abbreviates: checkerboard, in combination with Unp2-M1.

These results are taken from patent US20220401514A1, “ANTIMICROBIAL, BACTERIOPHAGE-DERIVED POLYPEPTIDES AND THEIR USE AGAINST GRAM-NEGATIVE AND ACID-FAST BACTERIA” (CONTRAFECT CORPORATION, priority 2019, published 2022).

Consider `NC[C@H]1O[C@H](O[C@H]2[C@H](O)[C@@H](O[C@H]3O[C@H](CO)[C@@H](O)[C@H](N)[C@H]3O)[C@H](N)C[C@@H]2N)[C@H](N)C[C@@H]1O` [tobramycin, reference compound], for which the MBEC was 0.03 µg/mL in assay [1] (A. baumanni (ATCC BAA-747)); less than 0.03 µg/mL in assay [1] (E. cloacae (CCUG 63317)); less than 0.03 µg/mL in assay [1] (E. coli (ATCC 25922)); less than 0.03 µg/mL in assay [1] (E. coli (ATCC 35329)); less than 0.03 µg/mL in assay [1] (E. coli (EC2)); 1 µg/mL in assay [1] (K. pneumoniae (ATCC 700603)). In addition, the MBEC in assay [1] (K. pneumoniae (KP1)) was 1 µg/mL; in assay [1] (P. aeruginosa (ATCC 27853)), 0.03 µg/mL. Also, the “Antibiotic FIC” value amounted to 0.125 in assay [2] (setting [5]); 0.125 in assay [2] (setting [6]); 0.125 in assay [2] (setting [7]); 0.125 in assay [2] (setting [8]); 0.25 in assay [2] (combined with Chp2); 0.25 in assay [2] (combined with Chp2-M1). The “Antibiotic MIC” value in assay [2] (setting [5]), in assay [2] (setting [6]), in assay [2] (setting [7]) and in assay [2] (setting [8]) was 3.906 ng/mL each time. For the same compound, the “Antibiotic MIC in checkerboard” value in assay [2] (combined with Chp2) was found to be 7.812 ng/mL; in assay [2] (combined with Chp2-M1) it was 3.906 ng/mL. Besides, in assay [3], the “change in MIC after 21 days” value is listed as “significant increases”.
“MARRYRLSRRRSRRLFSRTALRMHRRNRLRRIMRGGIRF [Chp4]”: the “Loss of bacterial viability” value is given as more than 3.5 log10 CFU/mL in assay [4] (1 μg/mL, 1 hour); more than 4 log10 CFU/mL in assay [4] (1 μg/mL, 3 hours); more than 4.8 log10 CFU/mL in assay [4] (1 μg/mL, 24 hours); more than 3.5 log10 CFU/mL in assay [4] (10 μg/mL, 1 hour); more than 4 log10 CFU/mL in assay [4] (10 μg/mL, 3 hours); more than 4.8 log10 CFU/mL in assay [4] (10 μg/mL, 24 hours). Besides, the “bacterial viability after treatment (time-kill)” value in assay [4] (1, 3 and 24 hours, 1 μg/mL and 10 μg/mL, CAA + […] human serum) was “multi-log fold decreases”.
